The results in this text go back to ChEMBL document CHEMBL2010689 (J Med Chem, 2012).

Series [1] has as its target Vascular endothelial growth factor receptor 2 (Homo sapiens, UniProt P35968).
Description: Inhibition of human recombinant VEGF-R2 expressed in baculovirus expression system using GST-PLCgamma as substrate after 1 hr by time-resolved fluorescence analysis
Series [2] addresses Angiopoietin-1 receptor (Homo sapiens, UniProt Q02763).
Description: Inhibition of human recombinant Tie2 expressed in baculovirus expression system using GST-PLCgamma as substrate after 1 hr by time-resolved fluorescence analysis
The nature of series [3]: Metabolic stability in rat liver S9 fraction assessed as compound remaining after 2 hrs. The format is ADME, subcellular. The note with it: read-out: Stability.
Series [4] is described as follows: Metabolic stability in mouse liver S9 fraction assessed as compound remaining after 2 hrs. The format is ADME, subcellular. The settings on record: read-out: Stability.
Series [5] in a line: Metabolic stability in dog liver S9 fraction assessed as compound remaining after 2 hrs. The format is ADME, subcellular, Canis lupus familiaris. The note with it: read-out: Stability.
A short description of series [6]: Metabolic stability in monkey liver S9 fraction assessed as compound remaining after 2 hrs. The format is ADME, subcellular, Macaca mulatta. The settings on record: rhesus monkey, read-out: Stability.
Series [7] can be described thus: Metabolic stability in human liver S9 fraction assessed as compound remaining after 2 hrs. The format is ADME, subcellular. The note with it: read-out: Stability.
The nature of series [8]: Oral bioavailability in Sprague-Dawley rat at 5 mg/kg. The note with it: in vivo. The format is ADME, organism-based.

Chain of Angiopoietin-1 receptor (Q02763 whole entry): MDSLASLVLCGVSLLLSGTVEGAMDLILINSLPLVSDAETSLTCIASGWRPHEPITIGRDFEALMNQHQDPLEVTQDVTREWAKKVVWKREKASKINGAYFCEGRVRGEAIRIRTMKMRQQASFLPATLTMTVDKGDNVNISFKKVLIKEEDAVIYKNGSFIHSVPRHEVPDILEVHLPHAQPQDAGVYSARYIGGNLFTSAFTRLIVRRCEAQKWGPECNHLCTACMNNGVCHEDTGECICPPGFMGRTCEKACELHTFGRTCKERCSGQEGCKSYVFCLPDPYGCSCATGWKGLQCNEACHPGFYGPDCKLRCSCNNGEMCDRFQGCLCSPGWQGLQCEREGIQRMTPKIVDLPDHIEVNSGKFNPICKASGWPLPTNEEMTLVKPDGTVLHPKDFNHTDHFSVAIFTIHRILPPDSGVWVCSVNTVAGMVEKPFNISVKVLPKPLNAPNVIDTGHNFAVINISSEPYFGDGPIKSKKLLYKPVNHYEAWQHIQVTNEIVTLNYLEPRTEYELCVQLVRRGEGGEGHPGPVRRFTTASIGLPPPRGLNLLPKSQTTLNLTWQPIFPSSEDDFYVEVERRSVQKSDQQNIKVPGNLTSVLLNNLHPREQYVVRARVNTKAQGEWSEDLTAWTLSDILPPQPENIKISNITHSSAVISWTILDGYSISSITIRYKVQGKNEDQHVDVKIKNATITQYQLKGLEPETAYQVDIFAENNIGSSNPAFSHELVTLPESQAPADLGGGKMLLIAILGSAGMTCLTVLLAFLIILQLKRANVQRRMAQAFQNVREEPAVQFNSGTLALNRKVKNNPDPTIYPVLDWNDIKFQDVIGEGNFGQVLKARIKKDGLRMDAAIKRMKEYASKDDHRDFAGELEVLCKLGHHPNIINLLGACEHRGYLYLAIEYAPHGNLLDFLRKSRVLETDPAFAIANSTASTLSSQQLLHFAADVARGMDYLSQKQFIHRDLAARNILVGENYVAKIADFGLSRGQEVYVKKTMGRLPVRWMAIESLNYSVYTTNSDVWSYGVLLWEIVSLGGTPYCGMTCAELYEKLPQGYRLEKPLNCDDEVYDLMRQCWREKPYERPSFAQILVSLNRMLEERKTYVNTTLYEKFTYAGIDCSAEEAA
Chain of Vascular endothelial growth factor receptor 2 (P35968 whole entry): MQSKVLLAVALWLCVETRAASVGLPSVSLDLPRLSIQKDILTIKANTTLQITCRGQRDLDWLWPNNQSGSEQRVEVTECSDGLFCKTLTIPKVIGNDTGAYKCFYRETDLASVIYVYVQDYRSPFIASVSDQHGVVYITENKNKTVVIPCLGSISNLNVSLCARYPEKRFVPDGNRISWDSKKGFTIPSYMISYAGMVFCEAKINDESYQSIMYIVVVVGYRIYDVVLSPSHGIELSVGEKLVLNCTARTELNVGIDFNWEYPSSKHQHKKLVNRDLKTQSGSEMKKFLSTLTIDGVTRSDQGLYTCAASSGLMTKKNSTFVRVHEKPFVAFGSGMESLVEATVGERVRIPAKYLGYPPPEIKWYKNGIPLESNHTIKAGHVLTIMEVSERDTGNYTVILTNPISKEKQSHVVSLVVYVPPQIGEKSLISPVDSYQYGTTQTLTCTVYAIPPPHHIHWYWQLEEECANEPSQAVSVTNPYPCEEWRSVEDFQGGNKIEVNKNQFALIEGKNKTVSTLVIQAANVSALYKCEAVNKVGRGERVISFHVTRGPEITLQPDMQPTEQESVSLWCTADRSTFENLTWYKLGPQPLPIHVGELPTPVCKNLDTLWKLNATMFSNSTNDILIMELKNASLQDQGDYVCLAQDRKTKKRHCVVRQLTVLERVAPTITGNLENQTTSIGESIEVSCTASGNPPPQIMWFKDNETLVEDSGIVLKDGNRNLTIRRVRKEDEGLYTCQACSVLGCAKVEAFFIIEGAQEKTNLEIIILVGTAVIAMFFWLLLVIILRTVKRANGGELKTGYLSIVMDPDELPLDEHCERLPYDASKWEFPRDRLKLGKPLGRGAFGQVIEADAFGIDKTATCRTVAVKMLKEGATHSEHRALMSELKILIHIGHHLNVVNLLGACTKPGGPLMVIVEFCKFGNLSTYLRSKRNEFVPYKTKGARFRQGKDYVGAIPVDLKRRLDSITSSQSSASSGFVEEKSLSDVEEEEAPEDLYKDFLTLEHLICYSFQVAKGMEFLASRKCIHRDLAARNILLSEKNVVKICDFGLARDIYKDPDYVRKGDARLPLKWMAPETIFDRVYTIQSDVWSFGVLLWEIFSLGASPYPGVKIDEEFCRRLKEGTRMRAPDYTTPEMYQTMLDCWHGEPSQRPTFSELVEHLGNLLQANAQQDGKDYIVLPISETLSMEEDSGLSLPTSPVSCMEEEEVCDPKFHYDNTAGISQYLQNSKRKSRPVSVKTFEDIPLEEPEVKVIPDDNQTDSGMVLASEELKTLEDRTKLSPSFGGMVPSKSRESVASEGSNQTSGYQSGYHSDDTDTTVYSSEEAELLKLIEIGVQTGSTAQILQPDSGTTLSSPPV

As a reminder, the IC50 is the concentration that gives 50% inhibition. Take `Cc1cc(C)nc(Nc2ccc3c(c2)c2c4c(c5c(c2n3CC(C)C)CCc2nn(C)cc2-5)C(=O)NC4)n1`: the IC50 in series [1] and in series [2] was > 3 µM each time.

For `CC(C)Cn1c2ccc(Nc3nccc(C(F)(F)F)n3)cc2c2c3c(c4c(c21)CCc1nn(C)cc1-4)C(=O)NC3`, the concentration for half-maximal inhibition (IC50) in series [2] is > 3 µM.

For orientation: bioavailability means dose-corrected exposure relative to a reference, in per cent. As for `CCCn1c2ccc(Nc3ncccn3)cc2c2c3c(c4c(c21)CCc1nn(C)cc1-4)C(=O)NC3`, the remaining at 2 h in series [3] was found to be 65%; in series [4], 65%; in series [5], 65%; in series [6] it was 44%; in series [7], 54%. For the same compound, the bioavailability in series [8] was determined as 22%.

Regarding `COc1ccnc(Nc2ccc3c(c2)c2c4c(c5c(c2n3CC(C)C)CCc2nn(C)cc2-5)C(=O)NC4)n1`, in series [2], the half-maximal inhibitory concentration (IC50) was > 1 µM.

For `CC(C)n1c2ccc(Nc3ccncc3)cc2c2c3c(c4c(c21)CCc1nn(C)cc1-4)C(=O)NC3`, the 50% inhibitory concentration (IC50) in series [2] is > 3 µM.

For `CC(C)OCc1ccc2c(c1)c1c3c(c4c(c1n2CCCO)Cc1ccccc1-4)C(=O)NC3` [CEP-5214], the IC50 in series [2] is > 10 µM.
